Source: PMC8851638 (ACS Omega, 2022)
Values after ≈ are worked out from the molar mass of the structure shown. Values joined by “and” are separate entries in the source; they are usually repeats but may differ in a detail not shown here. Equal entries are not always repeated.

Key:
[1] = tested on: C. albicans200 (MDR00200); experiment: Agar well-diffusion antimicrobial sensitivity assay; type: cell-based, Candida albicans; conditions: Candida albicans, read-out: Inhibition Zone (IZ)
A. baumannii [2] = experiment: Checkerboard combination assay with Ciprofloxacin; type: cell-based
K. pneumoniae [3] = experiment: Single-step resistance selection; type: cell-based; conditions: 4 × MIC, 48 h
[4] = tested on: Vero: green monkey kidney; experiment: In vitro cytotoxicity on normal cell line; type: cell-based
[5] = In vitro cytotoxicity on normal cell line; type: cell-based, green monkey; conditions: green monkey, Vero kidney cells
B. subtilis [6] = experiment: Checkerboard combination assay with Ciprofloxacin; type: cell-based
S. aureus biofilm = experiment: Staphylococcus biofilm mass reduction; type: cell-based; conditions: at their MIC
[7] = tested on: H9C2: rat heart/myocardium; experiment: In vitro cytotoxicity on normal cell line; type: cell-based
[8] = In vitro cytotoxicity on normal cell line; type: cell-based, rat; conditions: rat, H9C2 heart/myocardium cells
B. subtilis [9] = experiment: Single-step resistance selection; type: cell-based; conditions: 4 × MIC, 48 h
K. pneumoniae [10] = experiment: Checkerboard combination assay with Ciprofloxacin; type: cell-based
E. coli (MDR00501) [11] = experiment: Agar well-diffusion antimicrobial sensitivity assay; type: cell-based; conditions: Escherichia coli, read-out: Inhibition Zone (IZ)
C. albicans100 [12] = experiment: Single-step resistance selection; type: cell-based, Candida albicans; conditions: 4 × MIC, 48 h
S. epidermidis [13] = experiment: Single-step resistance selection; type: cell-based, Staphylococcus epidermidis; conditions: 4 × MIC, 48 h
C. albicans200 [14] = experiment: Single-step resistance selection; type: cell-based, Candida albicans; conditions: 4 × MIC, 48 h
[15] = tested on: C. albicans200 (MDR00200); experiment: MIC and MFC by broth microdilution; type: cell-based, Candida albicans
E. coli (MDR00501) [16] = experiment: MIC and MBC by broth microdilution; type: cell-based
K. pneumoniae (MDR00244) = experiment: MIC and MBC by broth microdilution; type: cell-based; conditions: ratio in parentheses
E. coli [17] = experiment: Single-step resistance selection; type: cell-based; conditions: 4 × MIC, 48 h
B. subtilis (MDR00423) = experiment: MIC and MBC by broth microdilution; type: cell-based
S. aureus (MDR00231) [18] = experiment: MIC and MBC by broth microdilution; type: cell-based, Staphylococcus aureus
S. epidermidis [19] = experiment: Checkerboard combination assay with Ciprofloxacin; type: cell-based, Staphylococcus epidermidis
[20] = tested on: C. albicans100 (MDR00100); experiment: MIC and MFC by broth microdilution; type: cell-based, Candida albicans
S. aureus [21] = experiment: Single-step resistance selection; type: cell-based, Staphylococcus aureus; conditions: 4 × MIC, 48 h
[22] = tested on: C. albicans100 (MDR00100); experiment: Agar well-diffusion antimicrobial sensitivity assay; type: cell-based, Candida albicans; conditions: Candida albicans, read-out: Inhibition Zone (IZ)
S. epidermidis biofilm = experiment: Staphylococcus biofilm mass reduction; type: cell-based; conditions: at their MIC
[23] = tested on: BNL: mouse normal liver cells; experiment: In vitro cytotoxicity on normal cell line; type: cell-based
[24] = In vitro cytotoxicity on normal cell line; type: cell-based, mouse; conditions: mouse, BNL normal liver cells
S. aureus [25] = experiment: Checkerboard combination assay with Ciprofloxacin; type: cell-based, Staphylococcus aureus
[26] = tested on: S. epidermidis (MDR00223); experiment: MIC and MBC by broth microdilution; type: cell-based, Staphylococcus epidermidis
A. baumannii (MDR00521) = experiment: MIC and MBC by broth microdilution; type: cell-based
RBCs = experiment: Hemolytic assay; type: cell-based; conditions: human RBCs; compounds 1.0 mg/mL; Triton X-100 0.1% v/v; 37 °C, 35 min
S. aureus (MDR00231) [27] = experiment: Agar well-diffusion antimicrobial sensitivity assay; type: cell-based, Staphylococcus aureus; conditions: Staphylococcus aureus, read-out: Inhibition Zone (IZ)
C. albicans100 [28] = experiment: Checkerboard combination assay with Ketoconazole; type: cell-based, Candida albicans
E. coli [29] = experiment: Checkerboard combination assay with Ciprofloxacin; type: cell-based
E. coli DNA gyrase = E. coli DNA gyrase (Escherichia coli, UniProt P0AES4+P0AES6); experiment: DNA gyrase inhibition; type: biochemical
Sequence of E. coli DNA gyrase (P0AES4 whole entry, one chain of several): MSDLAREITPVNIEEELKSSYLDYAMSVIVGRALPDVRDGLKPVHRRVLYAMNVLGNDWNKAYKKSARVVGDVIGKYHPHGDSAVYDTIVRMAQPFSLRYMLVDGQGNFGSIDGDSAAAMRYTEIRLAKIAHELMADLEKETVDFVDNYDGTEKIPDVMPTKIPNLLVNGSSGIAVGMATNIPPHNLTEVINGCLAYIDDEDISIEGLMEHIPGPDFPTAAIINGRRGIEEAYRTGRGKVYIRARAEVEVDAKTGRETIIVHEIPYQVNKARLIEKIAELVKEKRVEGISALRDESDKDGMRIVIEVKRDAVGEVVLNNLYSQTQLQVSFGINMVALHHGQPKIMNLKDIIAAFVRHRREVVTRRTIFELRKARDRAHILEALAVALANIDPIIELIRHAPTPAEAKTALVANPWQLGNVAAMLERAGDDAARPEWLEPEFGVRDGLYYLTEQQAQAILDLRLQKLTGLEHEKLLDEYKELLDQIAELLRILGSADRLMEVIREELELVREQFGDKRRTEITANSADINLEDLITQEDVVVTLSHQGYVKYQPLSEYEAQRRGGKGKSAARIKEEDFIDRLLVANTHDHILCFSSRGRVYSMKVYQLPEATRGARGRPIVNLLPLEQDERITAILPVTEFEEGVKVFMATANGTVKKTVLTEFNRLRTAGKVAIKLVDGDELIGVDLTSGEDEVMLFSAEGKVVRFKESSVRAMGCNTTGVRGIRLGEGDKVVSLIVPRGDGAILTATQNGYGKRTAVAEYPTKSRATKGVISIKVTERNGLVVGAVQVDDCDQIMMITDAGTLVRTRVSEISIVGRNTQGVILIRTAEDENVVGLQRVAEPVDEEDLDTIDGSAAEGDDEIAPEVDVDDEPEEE

C. albicans200 [30] = experiment: Checkerboard combination assay with Ketoconazole; type: cell-based, Candida albicans
[31] = biological target: T1, dihydrofolate reductase (DHFR) (Homo sapiens, UniProt P00374); experiment: DHFR inhibition; type: biochemical
T1 sequence (P00374 1-187): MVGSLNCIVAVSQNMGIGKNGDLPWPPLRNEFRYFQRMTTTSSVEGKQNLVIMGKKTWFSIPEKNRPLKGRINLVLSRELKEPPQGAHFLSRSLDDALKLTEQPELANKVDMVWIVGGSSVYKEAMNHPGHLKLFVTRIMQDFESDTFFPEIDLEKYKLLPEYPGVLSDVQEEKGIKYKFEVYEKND

[32] = tested on: S. epidermidis (MDR00223); experiment: Agar well-diffusion antimicrobial sensitivity assay; type: cell-based, Staphylococcus epidermidis; conditions: Staphylococcus epidermidis, read-out: Inhibition Zone (IZ)
A. baumannii [33] = experiment: Single-step resistance selection; type: cell-based; conditions: 4 × MIC, 48 h

Structure (SMILES): N#CC(=Cc1cn(-c2ccccc2)nc1-c1ccccc1)C1=NC(=O)CS1 [Compound 4a, 3-(1,3-Diphenyl-1H-pyrazol-4-yl)-2-(4-oxo-4,5-dihydrothiazol-2-yl)acrylonitrile]
- zone of inhibition at 100000 µg/mL [1]: 31 ± 0.22 mm
- combination effect (A. baumannii [2]): S (S: synergism)
- fractional inhibitory concentration index (FICI) (A. baumannii [2]): 0.25
- Single-step resistance frequency (mutation frequency) (K. pneumoniae [3]): 1.54 × 10^–9
- Selectivity index against DHFR ([4]; IC50 of Vero / IC50 of DHFR): 88.70
- Selectivity index against DNA gyrase ([4]; IC50 of Vero / IC50 of DNA gyrase): 4.76
- IC50 at 72 h [5]: 86.9 ± 0.97 µM
- combination effect (B. subtilis [6]): S (S: synergism)
- fractional inhibitory concentration index (FICI) (B. subtilis [6]): 0.5
- reduction of biofilm formation (S. aureus biofilm): 74.3%
- Selectivity index against DHFR ([7]; IC50 of H9C2 / IC50 of DHFR): 105.40
- Selectivity index against DNA gyrase ([7]; IC50 of H9C2 / IC50 of DNA gyrase): 5.66
- IC50 at 72 h [8]: 103 ± 1.5 µM
- Single-step resistance frequency (mutation frequency) (B. subtilis [9]): 2.20 × 10^–8
- combination effect (K. pneumoniae [10]): S (S: synergism)
- fractional inhibitory concentration index (FICI) (K. pneumoniae [10]): 0.5
- zone of inhibition at 100000 µg/mL (E. coli (MDR00501) [11]): 26 ± 0.33 mm
- Single-step resistance frequency (mutation frequency) (C. albicans100 [12]): 1.40 × 10^–8
- Single-step resistance frequency (mutation frequency) (S. epidermidis [13]): 2.43 × 10^–7
- Single-step resistance frequency (mutation frequency) (C. albicans200 [14]): 1.58 × 10^–7
- MIC (mean ± SEM) ([15]; C. albicans200, broth microdilution): 0.22 ± 0.2 µg/mL (≈ 0.594 µM)
- MFC/MIC ([15]; C. albicans200, ratio in parentheses): 0.5
- MIC ([15]; Candida albicans, read-out: MIC (mean ± SEM), C. albicans200, broth microdilution): 0.22 µg/mL (≈ 0.594 µM)
- MIC (mean ± SEM) (E. coli (MDR00501) [16]; E. coli, broth microdilution): 0.45 ± 0.2 µg/mL (≈ 1.21 µM)
- MBC/MIC (E. coli (MDR00501) [16]; E. coli, ratio in parentheses): 0.5
- MIC (E. coli (MDR00501) [16]; Escherichia coli, read-out: MIC (mean ± SEM), E. coli, broth microdilution): 0.45 µg/mL (≈ 1.21 µM)
- MBC/MIC (K. pneumoniae (MDR00244)): 0.5
- Single-step resistance frequency (mutation frequency) (E. coli [17]): 1.20 × 10^–9
- MBC/MIC (B. subtilis (MDR00423); B. subtilis, ratio in parentheses): 0.5
- MIC (B. subtilis (MDR00423); Bacillus subtilis, read-out: MIC (mean ± SEM), B. subtilis, broth microdilution): 0.45 ± 0.5 µg/mL (≈ 1.21 µM)
- MBC/MIC (S. aureus (MDR00231) [18]; S. aureus, ratio in parentheses): 0.5
- MIC (S. aureus (MDR00231) [18]; Staphylococcus aureus, read-out: MIC (mean ± SEM), S. aureus, broth microdilution): 0.43 ± 0.4 µg/mL (≈ 1.16 µM)
- combination effect (S. epidermidis [19]): S (S: synergism)
- fractional inhibitory concentration index (FICI) (S. epidermidis [19]): 0.5
- MIC (mean ± SEM) ([20]; C. albicans100, broth microdilution): 0.45 ± 0.3 µg/mL (≈ 1.21 µM)
- MFC/MIC ([20]; C. albicans100, ratio in parentheses): 1
- MIC ([20]; Candida albicans, read-out: MIC (mean ± SEM), C. albicans100, broth microdilution): 0.45 µg/mL (≈ 1.21 µM)
- Single-step resistance frequency (mutation frequency) (S. aureus [21]): 1.61 × 10^–7
- zone of inhibition at 100000 µg/mL [22]: 29 ± 0.23 mm
- reduction of biofilm formation (S. epidermidis biofilm): 64.8%
- Selectivity index against DHFR ([23]; IC50 of BNL / IC50 of DHFR): 101.44
- Selectivity index against DNA gyrase ([23]; IC50 of BNL / IC50 of DNA gyrase): 5.44
- IC50 at 72 h [24]: 99.4 ± 1.04 µM
- combination effect (S. aureus [25]): S (S: synergism)
- fractional inhibitory concentration index (FICI) (S. aureus [25]): 0.25
- MBC/MIC ([26]; S. epidermidis, ratio in parentheses): 1
- MIC ([26]; Staphylococcus epidermidis, read-out: MIC (mean ± SEM), S. epidermidis, broth microdilution): 0.48 ± 0.2 µg/mL (≈ 1.3 µM)
- MIC (mean ± SEM) (A. baumannii (MDR00521); broth microdilution): 0.44 ± 0.3 µg/mL (≈ 1.19 µM)
- MBC/MIC (A. baumannii (MDR00521); ratio in parentheses): 1
- %lysis of RBCs (RBCs): 7.55% and 7.55 ± 0.63%
- zone of inhibition at 100000 µg/mL (S. aureus (MDR00231) [27]): 31 ± 0.18 mm
- combination effect (C. albicans100 [28]): S (S: synergism)
- fractional inhibitory concentration index (FICI) (C. albicans100 [28]): 0.5
- combination effect (E. coli [29]): S (S: synergism)
- fractional inhibitory concentration index (FICI) (E. coli [29]): 0.25
- IC50 (E. coli DNA gyrase): 18.2 ± 0.67 µM
- combination effect (C. albicans200 [30]): S (S: synergism)
- fractional inhibitory concentration index (FICI) (C. albicans200 [30]): 0.5
- IC50 [31]: 980 ± 110 nM
- zone of inhibition at 100000 µg/mL [32]: 28 ± 0.13 mm
- Single-step resistance frequency (mutation frequency) (A. baumannii [33]): 1.00 × 10^–9
